From patent US20090028795A1, “NOD1 as an Anti-Tumor Agent” (priority 2005, published 2009)
Starred links: 1 amine or outer side, 2 acyl side, 3 side chain; linkers in the order of their positions; H or OH if unused. Non-standard residues stand in square brackets, D forms with d. No end group written: not given here. mesoDAP = meso-diaminopimelic acid, O=C(O)[C@@H](CCC[C@H](N[*:1])C(=O)[*:2])N[*:3]

Legend:
[1] = test system: MCF-7 and MCF-7 C20 cells; assay: Sensitivity to apoptotic stimuli, parental MCF-7 versus MCF-7 C20 cells; type: cell-based, human; details: C20 compared with parental cells
Excerpt: FIG. 1A-C illustrates Nod1 involvement in TNF-induced apoptosis. FIG. 1A provides a schematic diagram of the mutated gene that gave rise to a TNFα-resistant phenotype, and was later identified as a Nod1 mutant bearing a blasticidine (blast) gene insertion. The cell line bearing this Nod1 mutation is the MCF7-C20 cell line. The insertion from the pDisrup retroviral construct was mapped to the Nod1 gene. The junction of blasticidine fused with the Nod1 gene occurred at the 3′ end of the Nod1 gene between leucine-rich region 8 (LRR8) and leucine-rich region 9 (LRR9). […] Cell extracts from MCF-7 parental (called “wt”) and MCF-7 C20 cells were prepared and either immunoprecipitated with a monoclonal anti-NOD1 antibody (upper panel) or directly loaded onto an SDS-PAGE gel (lower panel), then transferred to PVDF membranes. Blots were analyzed by immunoblotting using the same monoclonal anti-NOD1 antibody. […] MCF-7 and MCF-7 C20 cells were treated with increasing concentrations of TNF (0-40 ng/ml) for 20 h. Cell viability was determined by propidium iodide (PI) exclusion assay and flow cytometry.
(§1) Cell viability assays. Propidium iodide exclusion assay: Cells were stimulated as indicated for 2 days. Subsequently, cells were harvested, washed twice in FACS buffer (PBS containing 1% FCS and 0.1% NaN3) and resuspended in propidium iodide (PI)-containing FACS buffer (4 ug/ml). The extent of cell death was analyzed with a FACSCalibur flow cytometer (Becton Dickinson, Mountain View, Calif.). DAPI staining: MCF-7 cells were plated in chamber slides, and stimulated for 2 days. Cells were washed with PBS and apoptotic nuclei were stained with 1 μg/ml DAPI (Sigma Chemical Co., St. Louis, Mo.). Cells were fixed in 4% paraformaldehyde and examined by fluorescence microscopy.

MCF-7 C20/Nod1 cells = assay: Propidium iodide exclusion apoptosis assay, estrogen/tamoxifen studies; type: cell-based, human
Excerpt: FIG. 12A-C illustrates that estrogen increases γTriDAP-induced apoptosis and tamoxifen inhibits γTriDAP-induced apoptosis in various MCF-7 tumor cell lines. FIG. 12A graphically illustrates the percent apoptosis in MCF-7 Blasto, MCF-7 C20 and MCF-7 C20/Nod1 cells cultured in increasing amounts or estrogen and either cycloheximide (CHX) or CHX plus γTriDAP (γTri). FIG. 12B graphically illustrates the percent apoptosis in MCF-7 Blasto, MCF-7 C20 and MCF-7 C20/Nod1 cells cultured in increasing amounts of tamoxifen and either cycloheximide (CHX) or CHX plus γTriDAP (γTri). For the estrogen studies, MCF-7 cells were cultured in charcoal-treated medium and stimulated with γTriDAP/CHX in the presence of increasing concentrations of estrogen (E2) and cell viability was measured by propidium iodide (PI) exclusion. For the tamoxifen studies, cells were treated with tamoxifen prior to addition of γTriDAP/CHX and cell viability measured by PI exclusion. […] Total protein extracts from MCF-7 Blasto, MCF-7 C20 and MCF-7 C20/Nod1 cells and from cells isolated from tumors were analyzed by immunoblotting using antibody against estrogen receptor (ERα), and ERK2 as loading control.
as §1
To determine whether the presence of estrogens modulates Nod1-induced apoptotic pathway, cells were cultured in medium containing charcoal-treated serum.

[2] = test system: MCF-7 Blasto, MCF-7 C20, MCF-7 C20/Nod1 and MCF-7 RIP2ΔCARD cells; assay: Estrogen-induced proliferation (3H-thymidine) of MCF-7 cell lines; type: cell-based, human; details: for proliferative response to added estrogen: grown in the absence of estrogen
Experimental: (§2) FIG. 11A-D illustrate that the presence of Nod1 prevents tumor growth in SCID mice. FIG. 11A graphically illustrates the tumor volume in mice injected with MCF-7 C20 (left) and MCF-7 C20/Nod1 (right) cells as a function of time. The cells (3×10^6 cells/mouse) were injected into the flanks of female SCID mice. Tumor size was measured once a week and volume was determined according to the formula (PW2×L)/2. Each line represents tumor growth observed in one mouse (n=4). As illustrated, the tumor volume diminished in mice that received Nod1 expressing tumor cells (C20/Nod1). […] FIG. 11B graphically illustrates that implanting estrogen pellets into mice prior to injection of MCF-7 Blasto, MCF-7 C20 and MCF-7 C20/Nod1 cells (3×10^6 cells/mouse) increases tumor growth except when the tumor cells express Nod1 (the C20/Nod1 cells). […] The tumor volume was determined as described above. FIG. 11C graphically illustrates the tumor volume over time in mice injected with MCF-7 Blasto, MCF-7 C20 and MCF-7 RIP2ΔCARD cells. […] FIG. 11D graphically illustrates tumor cell growth as a function of estrogen concentration. […] MCF-7 Blasto, MCF-7 C20, MCF-7 C20/Nod1 and MCF-7 RIP2ΔCARD cells were exposed to increasing concentrations of 17β-estradiol, pulsed with ^3H-thimidine and cell growth was determined by liquid scintillation. Data are representative of at least 3 independent experiments.
Retroviral transfections. The various genes used in this study were cloned into pMSCV-Blasto, pBabe-Puro or pBabe-Neo retroviral vectors. MCF-7 cells were stably transfected using available procedures. Briefly, amphotropic 293 cells were transfected with retroviral vectors encoding selected Nod1, Nod2 and other proteins. Twenty-four hours post-transfection, cells were incubated at 32° C. overnight to produce viral particles. Target cells were infected the next day with virus-containing 293 cell supernatants containing recombinant retroviral particles. […] Cells were harvested on glass fiber filters and radioactivity measured by liquid scintillation. […]

MCF-7 cells [3] = assay: Propidium iodide exclusion cell death assay, wild-type (parental/Blasto) MCF-7 cells; type: cell-based, human
Experimental: as §1
(§3) To further investigate the role of Nod1 in apoptosis, a variety of cell types were incubated with the Nod1 ligand, […] (γTriDAP), which specifically activates Nod1. The cell types tested included the parental MCF-7 cell line, the Nod1-deficient MCF-7C20 clone, and a cell line engineered to contain an additional human Nod1 allele (MCF-7Nod1) so that Nod1 was over-expressed. To determine whether the resistance of C20 cells to γTriDAP-induced apoptosis resulted from the absence of Nod1, human Nod1 was stably expressed in MCF-7 C20 cells to produce Nod1-sufficient C20 cells (C20/Nod1). As another control, the parental MCF-7 cell line was transfected with an empty retroviral vector to generate MCF-7 Blasto cells. Cells were treated with γTriDAP in the presence or absence of cycloheximide (CHX) and cell death was then determined by propidium iodide staining and flow cytometry.

MCF-7 C20 cells = assay: Propidium iodide exclusion cell death assay, Nod1-deficient MCF-7 C20 cells; type: cell-based, human; details: C20 cells, charcoal-treated serum, γTriDAP/CHX
Experimental: as §1
To further investigate the role of Nod1 in apoptosis, a variety of cell types were incubated with the Nod1 ligand, […] (γTriDAP), which specifically activates Nod1. The cell types tested included the parental MCF-7 cell line, the Nod1-deficient MCF-7C20 clone, and a cell line engineered to contain an additional human Nod1 allele (MCF-7Nod1) so that Nod1 was over-expressed. […] Cells were treated with γTriDAP in the presence or absence of cycloheximide (CHX) and cell death was then determined by propidium iodide staining and flow cytometry.

[4] = test system: MCF-7 Blasto, MCF-7 C20 and MCF-7 C20/Nod1 tumors; assay: Xenograft tumor growth in SCID mice with estrogen pellets; type: in vivo
Experimental: as §2
Human xenografts in nude mice. MCF-7 Blasto, MCF-7 C20 and MCF-7 C20/Nod1 cells were trypsinized, washed once with PBS and resuspended to a concentration of 1.5×10^7/ml. Two hundred microliters of each suspension were inoculated subcutaneously into the flank of athymic SCID/SCID or SCID/Nod (non-obese diabetic) female mice. Tumor size was assessed once a week. Tumor volume was calculated.
In most studies, tumor formation by MCF-7 cells requires supplementation of estrogens for tumorigenesis in nude mice, even when cells are inoculated at high concentration. To further examine the role of estrogen in tumorigenesis, all three cell lines were injected into mice along with estrogen pellets (FIG. 11B). […]

MCF-7 Nod1 cells = assay: Propidium iodide exclusion cell death assay, MCF-7 cells over-expressing Nod1; type: cell-based, human; details: for effect on γTriDAP-induced cell death: caspase inhibitor 50 uM, 30 min before γTriDAP/CHX for 48 h; for effect on γTriDAP-induced apoptosis: inhibitor 100 uM, 30 min prior to γTriDAP/CHX for 48 h
Experimental: as §1, §3

SK-BR3 = assay: Apoptosis (PI staining), SK-BR3 cells; type: cell-based, human; details: plus TNFα and cycloheximide (FIG. 9B)
Experimental: as §1
To determine if Nod1-dependent apoptosis occurs in other human cell lines, a series of epithelial cell lines were examined where Nod1 was stably expressed to enhance sensitivity to activation of the Nod1 pathway. Cells were treated with TNFα (T) and γTriDAP (γ) in the presence or absence of CHX (C) and monitored for viability by PI staining as a measure of apoptosis (Table 1).

[5] = test system: poly(ADP-ribose)polymerase (PARP) and capases 6, 7, 8 and 9; assay: Western blot of PARP and caspase cleavage in MCF-7 cells; type: cell-based, human; details: CHX 0.5 ug/ml, 24 h
Experimental: Cleavage of PARP and various caspases was detected by Western blot analysis of cell MCF-7 Blasto, MCF-7 C20 and MCF-7 Nod1 after stimulation with γTriDAP, αTriDAP or medium (control) in the presence or absence of CHX (0.5 ug/ml) for 24 h. Cells were harvested, subjected to western blotting and PARP, caspases, p20, p41/43 and p35 were detected with antibodies reactive thereof.
Western blot analysis and immunoprecipitation. Cells were washed extensively and lysed using lysis buffer containing 50 mM Hepes, 100 mM NaCl, 2 mM EDTA, 10% glycerol, 1% Nonidet P-40, 14 μM pepstatin A, 100 uM leupeptin, 3 mM benzamidine, 1 mM PMSF, 1 mM sodium pyrophosphate, 10 mM sodium orthovanadate, 100 U/ml aprotinin, and 100 mM sodium fluoride. After incubation for 30 min on ice, cell lysates were centrifuged (14000 rpm, 10 min, 4° C.) and the supernatants were recovered. For immunoprecipitation, cell lysates were mixed with 5 μg of antibody for 3 hour at 4° C. under constant agitation. Immune complexes were allowed to bind to 20 μl protein A-Sepharose beads overnight, beads were washed three times with lysis buffer. Immunoprecipitates were separated on SDS-PAGE and transferred to PVDF membranes.

MCF-7 cells [6] = assay: Apoptosis in the presence of TNFα (FIG. 8C); type: cell-based, human; details: with TNFα
Experimental: FIG. 8A-D illustrate that a synergistic relationship exists between NOD1 and TNFα. FIG. 8A graphically illustrates that the percentage of apoptotic cells increases in dose-specific manner as the concentration of NOD1 increases from 0.0 to 100 μg/ml and the concentration of TNFα increases from 0.5 ng/ml to 1 ng/ml. FIG. 8B graphically illustrates that the percentage of apoptotic cells increases in dose-specific manner as the concentration of cycloheximide increases from 0.0 to 3 μg/ml and the concentration of TNFα increases from 0.5 ng/ml to 1 ng/ml. […] FIG. 8D illustrates NOD1 expression at various time points after exposure of MCF-7 cells to TNFα.

With TNFα the “sensitivity of MCF-7 C20 cells versus parental MCF-7 cells to induced cell death” value [1] was “significantly more resistant”.

With `CC/C(=C(\c1ccccc1)c1ccc(OCCN(C)C)cc1)c1ccccc1` [tamoxifen] the “effect on γTriDAP-induced cell death” value (MCF-7 C20/Nod1 cells; MCF-7 cell lines treated prior to γTriDAP/CHX (FIG. 12B)) was “partially blocked” and the “effect on estrogen-induced proliferation” value ([2]; MCF-7 C20 cells (data not shown)) was “blocked”.

`C[C@@H]1C[C@@H]([C@H](O)CC2CC(=O)NC(=O)C2)C(=O)[C@@H](C)C1` [cycloheximide] was tested, and the “cell death / apoptosis” value (MCF-7 cells [3]; wild type cells, agent alone) was “No cell death”.

In the case of 17β-estradiol [estrogen], the “effect on γTriDAP-induced apoptosis” value (MCF-7 C20/Nod1 cells; C20/Nod1 and Blasto cells, charcoal-treated serum, increasing estrogen) was “apoptosis increased in a dose-dependent manner”, the “proliferative response to added estrogen” value ([2]; MCF-C20 and MCF-7 RIP2ΔCARD cells) was “strong proliferative response” and the “proliferative response to added estrogen” value ([2]; parental and MCF-7 C20/Nod1 cells) was “neither the parental nor MCF-7 C20/Nod1 cell lines were stimulated to proliferate”. For the same compound, the effect upon apoptosis (MCF-7 C20 cells) was “little or no effect”, the tumor growth ([4]; mice injected with MCF-7 Blasto cells, estrogen pellets) was “tumors grew” and the tumor growth ([4]; mice injected with MCF-7 C20 cells, estrogen pellets) was “grew even larger”. The tumor growth ([4]; mice that received MCF-7 C20/Nod1, estrogen pellets) was “did not grow tumors”.

In the case of `COC(=O)CC(NC(=O)OC(C)(C)C)C(=O)CF` [Boc-D-FMK], the “effect on γTriDAP-induced cell death” value (MCF-7 Nod1 cells) was “abrogated”.

With IETD the “effect on γTriDAP-induced apoptosis” value (MCF-7 Nod1 cells) was “marked inhibitory effects”.

With `CC[C@@]1(O)C(=O)OCc2c1cc1n(c2=O)Cc2cc3ccccc3nc2-1` [camptothecin] the “sensitivity of MCF-7 C20 cells versus parental MCF-7 cells to induced cell death” value [1] was “equally sensitive”.

In the case of z-VAD-FMK, the “effect on γTriDAP-induced cell death” value (MCF-7 Nod1 cells) was “abrogated” and the “effect on γTriDAP-induced apoptosis” value (MCF-7 Nod1 cells) was “blocked γTriDAP-induced apoptosis nearly completely”.

`COc1cccc2c1C(=O)c1c(O)c3c(c(O)c1C2=O)C[C@@](O)(C(=O)CO)C[C@@H]3O[C@H]1C[C@H](N)[C@H](O)[C@H](C)O1` [doxirubicin] was tested, and the “sensitivity of MCF-7 C20 cells versus parental MCF-7 cells to induced cell death” value [1] was “equally sensitive”.

With “αTriDAP: inactive control tri-peptide where mesoDAP was bound to Glu in the α position rather than in the γ position (Ala-Glu-[mesoDAP]; not fully specified)” the “apoptosis of SKBR3 cells” value (SK-BR3) was “reduced apoptosis”, the cell death (MCF-7 cells [3]; MCF-7 cells, in the presence of cycloheximide) was “did not induce cell death” and the “proteolytic cleavage of PARP and capases 6, 7, 8 and 9” value [5] was “not”. The “apoptosis in the presence of TNFα” value (MCF-7 cells [6]) was “may actually inhibit apoptosis”.
